Legend:
3T3L1 cells = assay: MTT assay for cytotoxicity testing; type: cell-based; settings: 25 μM; 2, 4 and 6 days
Experimental: 12500 cells/mL were seeded in presence/absence of compound of Formula I in […] plate and at different intervals of time (2 days, 4 days, 6 days), 1/10th volume of 5 mg/ml MTT solution was added to it followed by incubation at 37° C. for 3 hours. The formed crystals were dissolved in DMSO and spectrometric estimation of colour intensity was done at 570 nm.
MTT assay was performed to check for any possible cellular toxicity effect of compound of Formula I, using 25 μM concentration of the compound on 3T3L1 cells upon incubation for varying lengths of time (2, 4 and 6 days). Comparison was done with cells that were left untreated or treated with DMSO as solvent control (FIG. 3).

[1] = test system: histone acetylation and butyrylation in 3T3L1 cells; assay: Immunoblotting of histone modification status in 3T3L1; type: cell-based; settings: 3T3L1 induced to undergo adipogenesis
Experimental: Histones were acid extracted from both undifferentiated and differentiated 3T3L1 for comparison of acetylation and butyrylation levels. For the acid extraction, 3T3L1 cells were washed with ice-cold PBS (supplemented with 5 mm NaBu) and then resuspended in Triton extraction buffer (PBS containing 0.5% Triton X-100 (v/v) and 2 mM PMSF). The cells were allowed to lyse on ice for 10 minutes, spun down, washed with PBS and the process was repeated another time. Then the proteins were acid extracted with 0.2 N HCl for two hours on ice. The debris was spun down and then histones were precipitated by incubating the supernatant with 33% Trichloroacetic acid at 4° C. for 30 minutes. The histones were then pelleted down and then given two washes with acetone. The pellet was allowed to air-dry for 10 minutes and then resuspended with 50 mm Tris-Cl, pH 7.4.
The histones were then run in 15% SDS-PAGE, transferred onto PVDF membrane, blocked with 5% skimmed milk solution to prevent non-specific antibody binding, and finally probed with antibodies against acetylation and butyrylation marks.
Acid extraction of histones was performed from 3T3L1 cells that had been induced to undergo adipogenesis in the absence of any inhibitor (No Inhibitor), in presence of DMSO (solvent control) and in presence of compound of Formula I. The extraction protocol was the same as that described in Example 7.
Histone acetylation levels in 3T3L1 cells that were treated with compound of Formula I were compared with that in DMSO treated and untreated conditions by immunoblotting with antibodies against acetylated histones H3K18, H3K9 and H4K12 (FIG. 7). Histones H3 and H4 were used as loading controls (panel i). Under similar conditions histone butyrylation levels were compared by immunoblotting using antibodies against butyrylated histone H3K23, H4K5 and pan-butyryl lysine (panel ii).

[2] = Detection of compound in mice liver by Q-TOF LC/MS; type: in vivo; settings: LC-ESI-MS of liver metabolites
Experimental: The liver samples of mice treated with compound I were homogenized in a solution consisting of 50% methanol and 50% water and then snap frozen in liquid nitrogen followed by lyophilization. Profiling of intracellular metabolites was performed on an agilent 1290 Infinity LC system coupled to Agilent 6545 Accurate Mass Quadrupole Time of Flight (QTOF) with Agilent Jet Stream Thermal Gradient Technology. The UPLC system was assembled with a Diode array detector (DAD) and autosampler. The Chromatographic separation was achieved on Agilent ZORBAX SB-C18 column (2.1×100 mm, 1.8 μm) as stationary phase. […]
The ESI spectra of pure solution of compound of Formula I was taken as reference (FIG. 14A). When LC-ESI-MS analysis of metabolites of compound treated mice, liver was performed, the corresponding protonated molecular ion species was detected in the ESI spectra (FIG. 14B).

COc1ccc(C(=O)C2=C3OC(C)(C)[C@@H](CC=C(C)C)C[C@@]34C[C@@H](CC=C(C)C)C(C)(C)[C@@](CC=C(C)C)(C2=O)C4=O)cc1OC [Compound X]
toxic effect (MTT) (3T3L1 cells): No toxic effect
H3K23 Bu mark [1]: showed inhibition
H4K5 Bu mark [1]: showed inhibition
histone acetylation (H3K18, H3K9, H4K12) [1]: not found to be affected
detection in mice liver (bioavailability) [2]: detected in its intact form

Reference: patent US20240269106A1, “SMALL MOLECULE MODULATOR TARGETING A RARE HISTONE MODIFICATION REGULATING ADIPOGENESIS AND PHARMACEUTICAL FORMULATION THEREOF” (COUNCIL OF SCIENTIFIC AND INDUSTRIAL RESEARCH AN INDIAN …, priority 2021, published 2024)
